Assay results as given in patent US20230143612A1 (Arbutus Biopharma Corporation, priority 2020, published 2023).

Molecular target: PD-L1 His protein / PD-1 Fc protein (Homo sapiens, UniProt Q9NZQ7)
Assay: HTRF Assay (PD-1/PD-L1 interaction)
Assay type: binding
Details: PD-L1 His 6 nM, PD-1 Fc 6 nM
Outline: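 Compounds tested from 20 μM down to 0.001 μM (3-fold) against 6 nM PD-L1 His and 6 nM PD-1 Fc, 15 min room temperature incubation. Detection after 1 h at room temperature with Tb cryptate anti-6HIS and XL665 anti-human IgG reagents (mixture at 0.35 nM and 6.7 nM), HTRF signal.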

PD-L1 His protein / PD-1 Fc protein, sequence (Q9NZQ7 19-238 limits assumed): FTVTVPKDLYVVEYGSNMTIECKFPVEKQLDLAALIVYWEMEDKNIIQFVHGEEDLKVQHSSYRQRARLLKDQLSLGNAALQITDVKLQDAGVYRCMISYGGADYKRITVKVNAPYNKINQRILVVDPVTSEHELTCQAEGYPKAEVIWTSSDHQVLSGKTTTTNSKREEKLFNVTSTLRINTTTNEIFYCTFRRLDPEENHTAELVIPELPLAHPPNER

Compared with Cc1c(-c2ccc3c(c2)CC(N)C3)cccc1-c1cccc(-c2ccn3c(=O)c(CNC[C@@H]4CCC(=O)N4)cnc3c2)c1C (mixture of isomers) [Example 41, 8-(3′-(2-Amino-2,3-dihydro-1H-inden-5-yl)-2,2′-dimethyl-[1,1′-biphenyl]-3-yl)-3-(((((S)-5-oxopyrrolidin-2-yl)methyl)amino)methyl)-4H-pyrido[1,2-a]pyrimidin-4-one], COc1nc(-c2cccc(-c3cccc(-c4ccn5c(=O)c(CNCC(C)(C)O)cnc5c4)c3Cl)c2Cl)ccc1CNC[C@@H]1CCC(=O)N1 [Example 133, (S)-8-(2,2′-Dichloro-3′-(6-methoxy-5-((((5-oxopyrrolidin-2-yl)methyl)amino)methyl)pyridin-2-yl)-[1,1′-biphenyl]-3-yl)-3-(((2-hydroxy-2-methylpropyl)amino)methyl)-4H-pyrido[1,2-a]pyrimidin-4-one] is 62-fold lower in IC50: 93 nM for the first, 1.5 nM for the second. The second is the more potent here.

Compared with COc1cc(-c2cccc(-c3cccc(-c4ccn5c(=O)c(CNC[C@@H]6CCC(=O)N6)cnc5c4)c3Cl)c2Cl)nc(Cl)c1CNC[C@@H]1CCC(=O)N1 [Example 431, 8-(2,2′-Dichloro-3′-(6-chloro-4-methoxy-5-(((((S)-5-oxopyrrolidin-2-yl)methyl)-amino)-methyl)pyridin-2-yl)-[1,1′-biphenyl]-3-yl)-3-(((((S)-5-oxopyrrolidin-2-yl)methyl)amino)methyl)-4H-pyrido[1,2-a]pyrimidin-4-one], COc1nc(-c2cccc(-c3cccc(-c4ccn5c(=O)c(CNC[C@@H]6CCC(=O)N6)c(Cl)nc5c4)c3Cl)c2Cl)ccc1CNC[C@@H]1CCC(=O)N1 [Example 227, 2-Chloro-8-(2,2′-dichloro-3′-(6-methoxy-5-(((((S)-5-oxopyrrolidin-2-yl)methyl)amino)methyl)pyridin-2-yl)-[1,1′-biphenyl]-3-yl)-3-(((((S)-5-oxopyrrolidin-2-yl)methyl)amino)methyl)-4H-pyrido[1,2-a]pyrimidin-4-one] is 15-fold lower in IC50: 180 nM for the first, 12 nM for the second.

Compared with COc1nc(-c2cccc(-c3cccc(-c4cn5cc(CNC[C@@H]6CCC(=O)N6)ccc5n4)c3Cl)c2Cl)ccc1CNC[C@@H]1CCC(=O)N1 [Example 99, (S)-5-((((6-(2,2′-Dichloro-3′-(6-(((((S)-5-oxopyrrolidin-2-yl)methyl)amino)methyl)imidazo[1,2-a]pyridin-2-yl)-[1,1′-biphenyl]-3-yl)-2-methoxypyridin-3-yl)methyl)amino)methyl)pyrrolidin-2-one], COc1nc(-c2cccc(-c3cccc(-c4cnc5oc(CNC[C@@H]6CCC(=O)N6)cc5c4)c3Cl)c2Cl)ccc1CNC[C@@H]1CCC(=O)N1 [Example 459, (S)-5-((((6-(2,2′-Dichloro-3′-(2-(((((S)-5-oxopyrrolidin-2-yl)methyl)amino)methyl)furo[2,3-b]pyridin-5-yl)-[1,1′-biphenyl]-3-yl)-2-methoxypyridin-3-yl)methyl)amino)methyl)pyrrolidin-2-one] is 42-fold higher in IC50: 4.8 nM for the first, 200 nM for the second. The first is the more potent here.

Compared with Cc1c(COc2cc(OCc3cncc(C#N)c3)c(CNCCO)cc2Cl)cccc1-c1cccc(-c2ccc3c(c2)N(C)C(=O)CCC3NCCO)c1C (stereo not drawn) [Example 22, 5-((4-Chloro-5-((3′-(5-((2-hydroxyethyl)amino)-1-methyl-2-oxo-2,3,4,5-tetrahydro-1H-benzo[b]azepin-8-yl)-2,2′-dimethyl-[1,1′-biphenyl]-3-yl)methoxy)-2-(((2-hydroxyethyl)amino)methyl)phenoxy)methyl)nicotinonitrile], COc1nc(-c2cccc(-c3cccc(-c4cc(C)n5c(=O)c(CNCCO)cnc5c4)c3Cl)c2Cl)ccc1CNC[C@@H]1CCC(=O)N1 [Example 308, (S)-8-(2,2′-Dichloro-3′-(6-methoxy-5-((((5-oxopyrrolidin-2-yl)methyl)amino)methyl)pyridin-2-yl)-[1,1′-biphenyl]-3-yl)-3-(((2-hydroxyethyl)amino)methyl)-6-methyl-4H-pyrido[1,2-a]pyrimidin-4-one] is 3.7-fold higher in IC50: 6 nM for the first, 22 nM for the second. The first is the more potent here.

Compared with COc1nc(-c2cccc(-c3cccc(-c4ccn5c(=O)c(CNC[C@@H]6C[C@@H]6CO)cnc5c4)c3Cl)c2Cl)ccc1CNC[C@@H]1CCC(=O)N1 [Example 409, 8-(2,2′-Dichloro-3′-(6-methoxy-5-(((((S)-5-oxopyrrolidin-2-yl)methyl)amino)methyl)pyridin-2-yl)-[1,1′-biphenyl]-3-yl)-3-(((((1R,2S)-2-(hydroxymethyl)cyclopropyl)methyl)amino)methyl)-4H-pyrido[1,2-a]pyrimidin-4-one], COC(=O)c1cnc(-c2cnc3cc(-c4cccc(-c5cccc(-c6ccc(CNC[C@@H]7CCC(=O)N7)c(OC)n6)c5Cl)c4Cl)ccn3c2=O)[nH]1 [Example 167, methyl (S)-2-(8-(2,2′-dichloro-3′-(6-methoxy-5-((((5-oxopyrrolidin-2-yl)methyl)amino)methyl)pyridin-2-yl)-[1,1′-biphenyl]-3-yl)-4-oxo-4H-pyrido[1,2-a]pyrimidin-3-yl)-1H-imidazole-5-carboxylate] is 2.5-fold higher in IC50: 0.2 nM for the first, 0.5 nM for the second. The first is the more potent here.

First: COc1nc(-c2cccc(-c3cccc(-c4nnc5n4CCNC5)c3Cl)c2Cl)ccc1CNC[C@@H]1CCC(=O)N1 [Example 240, (S)-5-((((6-(2,2′-Dichloro-3′-(5,6,7,8-tetrahydro-[1,2,4]triazolo[4,3-a]pyrazin-3-yl)-[1,1′-biphenyl]-3-yl)-2-methoxypyridin-3-yl)methyl)amino)methyl)pyrrolidin-2-one]
Second: COc1nc(-c2cccc(-c3cccc(-c4ncc5c(n4)CCN(C[C@@H]4CCC(=O)N4)C5)c3Cl)c2Cl)ccc1CNC[C@@H]1CCC(=O)N1 [Example 443, (S)-5-((((6-(2,2′-Dichloro-3′-(6-(((S)-5-oxopyrrolidin-2-yl)methyl)-5,6,7,8-tetrahydropyrido[4,3-d]pyrimidin-2-yl)-[1,1′-biphenyl]-3-yl)-2-methoxypyridin-3-yl)methyl)amino)methyl)pyrrolidin-2-one]
The IC50 of the first is 3500-fold higher: 350 nM for the first, 0.1 nM for the second. The second is the more potent here.

Compared with COc1nc(-c2cccc(-c3cccc(-c4cc5c(=O)n(C)c(CNC[C@@H](O)CC(=O)O)nn5c4)c3Cl)c2Cl)ccc1CNC[C@@H]1CCC(=O)N1 [Example 493, (3S)-4-[[6-[2-Chloro-3-[2-chloro-3-[6-methoxy-5-[[[(2S)-5-oxopyrrolidin-2-yl]methylamino]methyl]-2-pyridyl]phenyl]phenyl]-3-methyl-4-oxo-pyrrolo[2,1-f][1,2,4]triazin-2-yl]methylamino]-3-hydroxy-butanoic acid], COc1cc(-c2cccc(-c3cccc(-c4ccn5c(=O)c(CN(C)CCO)cnc5c4)c3Cl)c2Cl)cnc1CN(C)CCO [Example 362, 8-(2,2′-Dichloro-3′-(6-(((2-hydroxyethyl)(methyl)amino)methyl)-5-methoxypyridin-3-yl)-[1,1′-biphenyl]-3-yl)-3-(((2-hydroxyethyl)(methyl)amino)methyl)-4H-pyrido[1,2-a]pyrimidin-4-one] is 360-fold higher in IC50: 0.1 nM for the first, 36 nM for the second.

With COc1cc(-c2cccc(-c3cccc(-c4cc5c(c(OC)c4)CN(C[C@@H]4CCC(=O)N4)CC5)c3Cl)c2Cl)cc2c1CN(C[C@@H]1CCC(=O)N1)CC2 [Example 394, (5S,5'S)-5,5′-((6,6′-(2,2′-Dichloro-[1,1′-biphenyl]-3,3′-diyl)bis(8-methoxy-3,4-dihydroisoquinoline-6,2(1H)-diyl))bis(methylene))bis(pyrrolidin-2-one)] the IC50 was 71 nM.
